Laboratory results as given in patent US20240139149A1, “THERAPEUTIC USES OF UROLITHIN DERIVATIVES” (Vandria SA, priority 2022, published 2024).
“Also recorded” adds a separate entry of the source.

Key:
[1] = system: APTK-s.c. tumors; assay: Subcutaneous APTK organoid tumors, UA diet, with TIL analysis; type: in vivo, mouse
Method: Urolithin A containing diet (2.28 g/kg) or AIN− 93G control food (Brogaarden) were given ad libitum once introduced for experimental purpose at the indicated time.
For subcutaneous colorectal cancers, APTK organoids were mechanistically disrupted, incubated with Accutase to generate a single cell suspension and reconstituted in PBS 20% Matrigel (Corning) for subcutaneous transplantation. Tumor sizes were measured at the indicated time after transplantation and tumor volume quantified as ½(width2×length). Urolithin A or control food regiment were initiated either one week before tumor challenge or 11 days after tumor development. Therapeutic diets were maintained throughout the experiment unless indicated otherwise.
Tumors were minced and digested with Tumor & Tissue Dissociation Reagent (BD Horizon) for 30 min. The remaining organ pieces were filtered through a 70 m cell strainer. Cells were then washed with PBS 1% BSA and 2 mM EDTA. Immune cells were enriched on a 30%/40%/75% Percoll gradient after a 1700 rpm 17 min centrifugation. Then, tumor immune filtrates or activated T cells were stained with Fixable Viability Dye-eF780 (65-0865-14; eBioscience), αCD45-FITC (30-F11; 11-0451-85; eBioscience), αCD11b-BV650 (M1/70; 56340; BD) α-CD11c-BV785 (HL3; 563735; BD), aLy6G-BV605 (53-6.7; 563005; BD), aLy6C-AF700 (HK1.4; 128024; Biolegend), aF4/80-PE (BM8; 12-4801-82, eBioscience), aPD-L1-PECy7 (MIH5; 25-5982-80, eBioscience); or with Fixable Viability Dye-eF780 (ebioscience), αCD45-BV786 (30-F11; 564225; BD), αCD4-BUV496 (GK1.5; 564667; BD), αCD8-BV605 (100744; Biolegend), aPD1-APC (J43; 17-9985-82; eBioscience), aTIM-3-PECy7 (RMT3-23; 119715; Biolegend), aCTLA4-PE (UC10-4B9; 106305; Biolegend) and aLag3-BV421 (C9B7W; 125221, Biolegend); or with Fixable Viability Dye-eF780 (eBioscience), αCD4-FITC (H129.19; 553650; BD), αCD8-APC (53-6.7; 17-0081-83; eBioscience), αCD44-AF400 (IM7; 103026; Biolegend), αCD62L-BV785 (MEL-14; 104440; Biolegend), αSca-1-PerCP-Cy5.5 (D7; 45-5981-82; eBioscience), αCD95-PE (Jo2; 554258; BD); or with Fixable Viability Dye-eF780 (eBioscience), αCD8-BV650 (53-6.7; 563234; BD), αCD4-BUV496 (GK1.5; 564667; BD), αCD127-APC (A7R34; 17-1271-82; eBioscience), αCD95-FITC (SA367H8;152605; Biolegend), αCD44-AF400 (IM7; 103026; Biolegend), αCD62L-BV785 (MEL-14; 104440; Biolegend), αSca-1-PerCP-Cy5.5 (D7; 45-5981-82; eBioscience) followed by intracellular staining of aTCF1-PE (S33-966; 564217; BD), or PGC-1α (sc-518025; D-5; santa cruz), or aCyclinD1 (MA5-28534, DCS-6; Invitrogen) with transcription factor buffer set kit (BD Biosciences). To study cytokine expression, tumor immune infiltrates were stimulated ex vivo with 20 ng/mL PMA and 1 g/mL Ionomycin (Sigma) for 3 h in T cell activation medium with Brefeldin A (Biolegend).

[2] = system: splenic murine T cells; assay: Murine T cells stimulated with αCD3/αCD28 in presence of UA; type: cell-based
Method: Splenic murine T cells were isolated from mice aged 6-20 weeks by negative selection with EasySep mouse T cell isolation kit (Stem cell) according to the manufacturer's instructions. To monitor T cell proliferation, purified T cells were loaded with CellTrace Violet (C34557 ThermoFisher Scientific). T cell activation was initiated using αCD3/CD28 activation beads (11456D; ThermoFisher Scientific) at a ratio of 25 μl dynabeads per 0.5×106 T-cells. Cells were activated with 25-50 μM Urolithin A (Tocris) or DMSO in T cell activation Medium (RPMI (ThermoFisher Scientific) 10% FBS (South America origin), 10 mM Hepes (Sigma), 1×Non-Essential Amino Acid, 1 mM Sodium Pyruvate, 50 µM β-Mercaptoethanol, 100 U/mL penicillin, 100 μg/mL streptomycin and 2 mM Glutamax (ThermoFisher Scientific) for the indicated durations. In selected experiments, cells were stimulated in the presence of inhibitors, namely TCFli (ICG-001; SelleckChem; […]) and PGC-lai (SR-18292, Sigma-Aldrich; […]). For subsequent analysis, activating beads were magnetically removed prior antibody staining. For human T cells, peripheral blood mononuclear cells were purified with a Ficoll-Paque (GE healthcare) gradient. T cells were enriched with EasySep Human T Cell Isolation Kit (StemCell) and activated with dynabead Human T-Activator CD3/CD28 for T Cell Expansion and Activation Kit (11131D; ThermoFisher Scientific), similar to murine T cell stimulation. When the subsequent activation and expansion of CAR T cells was studied, plates were coated with 1 μg/mL anti-human CD3 (αCD3; clone OKT3) and thawed PBMC were cultivated with […] anti-human CD28 (αCD28; 15E8, both Miltenyi Biotec) containing media for three days. (NutriT media (4Cell® Nutri-T media (Sartorius) containing 0.5% penicillin/streptomycin) supplemented with IL-7 (25 U/mL) and IL-15 […] (all Miltenyi Biotec)).
Tumors were minced and digested with Tumor & Tissue Dissociation Reagent (BD Horizon) for 30 min. The remaining organ pieces were filtered through a 70 µm cell strainer. Cells were then washed with PBS 1% BSA and 2 mM EDTA. Immune cells were enriched on a 30%/40%/75% Percoll gradient after a 1700 rpm 17 min centrifugation. Then, tumor immune filtrates or activated T cells were stained with Fixable Viability Dye-eF780 (65-0865-14; eBioscience), αCD45-FITC (30-F11; 11-0451-85; eBioscience), αCD11b-BV650 (M1/70; 56340; BD) α-CD11c-BV785 (HL3; 563735; BD), aLy6G-BV605 (53-6.7; 563005; BD), aLy6C-AF700 (HK1.4; 128024; Biolegend), aF4/80-PE (BM8; 12-4801-82, eBioscience), aPD-L1-PECy7 (MIH5; 25-5982-80, eBioscience); or with Fixable Viability Dye-eF780 (ebioscience), αCD45-BV786 (30-F11; 564225; BD), αCD4-BUV496 (GK1.5; 564667; BD), αCD8-BV605 (100744; Biolegend), aPD1-APC (J43; 17-9985-82; eBioscience), aTIM-3-PECy7 (RMT3-23; 119715; Biolegend), aCTLA4-PE (UC10-4B9; 106305; Biolegend) and aLag3-BV421 (C9B7W; 125221, Biolegend); or with Fixable Viability Dye-eF780 (eBioscience), αCD4-FITC (H129.19; 553650; BD), αCD8-APC (53-6.7; 17-0081-83; eBioscience), αCD44-AF400 (IM7; 103026; Biolegend), αCD62L-BV785 (MEL-14; 104440; Biolegend), αSca-1-PerCP-Cy5.5 (D7; 45-5981-82; eBioscience), αCD95-PE (Jo2; 554258; BD); or with Fixable Viability Dye-eF780 (eBioscience), αCD8-BV650 (53-6.7; 563234; BD), αCD4-BUV496 (GK1.5; 564667; BD), αCD127-APC (A7R34; 17-1271-82; eBioscience), αCD95-FITC (SA367H8;152605; Biolegend), αCD44-AF400 (IM7; 103026; Biolegend), αCD62L-BV785 (MEL-14; 104440; Biolegend), αSca-1-PerCP-Cy5.5 (D7; 45-5981-82; eBioscience) followed by intracellular staining of aTCF1-PE (S33-966; 564217; BD), or PGC-1α (sc-518025; D-5; santa cruz), or aCyclinD1 (MA5-28534, DCS-6; Invitrogen) with transcription factor buffer set kit (BD Biosciences). To study cytokine expression, tumor immune infiltrates were stimulated ex vivo with 20 ng/mL PMA and […] Ionomycin (Sigma) for 3 h in T cell activation medium with Brefeldin A (Biolegend). […]

[3] = C57BL/6 mice, s.c. APTK organoids, UA-supplemented diet

With `O=c1oc2cc(O)ccc2c2ccc(O)cc12` [UA, Urolithin A] the “CD8+ T cell infiltration” value [1, 3] was “enhanced”, the tumor growth [1, 3] was “significantly reduced” and the “tumor response in combination with PD-1 blockade” value ([1]; C57BL/6 mice, s.c. APTK tumors, UA diet plus α-PD-1) was “sensitized APTK tumors to PD-1 blockade”. For the same molecule, the “tumor suppressive effect in Pink1−/− mice” value ([1]; Pink1−/− mice, s.c. APTK organoids, UA diet) was “abrogated the tumor suppressive effect”, the “protective effect on tumor growth in Rag1−/− mice” value ([1]; Rag1−/− mice (no mature T and B cells), s.c. APTK organoids, UA diet) was “abrogated the protective effect” and the “CD4+ TSCM, dendritic cells, TAMs, MDSC subsets in tumors” value ([1]; UA diet vs control diet) was “no change”. The “CD8+CD44loCD62LhiSca1hi T cells in APTK-induced tumors” value ([1]; UA diet vs control diet) was “marked increase”, the “TCF1 expression in tumor infiltrating CD8+ T cells” value ([1]; UA diet vs control diet) was “increased expression” and the “mitochondrial content in TIL of APTK tumors” value ([1]; UA diet vs control diet) was “increased mitochondrial content”. For the same molecule, the “exhaustion markers PD-1, CTLA-4 and Tim3 in CD8+ T cells” value ([1]; UA-fed mice) was “reduction”, the “TNFα and IFNγ in tumor infiltrating CD8+ T cells” value ([1]; restimulated with PMA/ionomycin ex vivo) was “stronger induction” and the “lysosome formation in CD8+ T cells” value ([2]; 6 h, UA 50 μM) was “enhanced”. The “phosphorylation of Stat1” value ([2]; 6 h, UA 50 μM vs vehicle) was “equal phosphorylation”, the Parkin protein expression ([2]; 24 h, UA 50 μM) was “stabilized” and the “PGC-1α in Pink1−/− or Pgam5−/− CD8+ T cells” value ([2]; 48 h, UA 50 μM) was “failed to enhance”. For the same molecule, the “cyclin D1 expression” value ([2]; 48 h, UA 50 μM) was “reduced”, the “CD8+ T cell division / proliferation” value ([2]; 72 h) was “restricted; also recorded: restricts T cell proliferation” and the “central memory cells (TCM)” value ([2]; CD8+ T cells, αCD3/αCD28) was “reduction”. For the same molecule, the “frequency of effector memory cells (TEM)” value ([2]; CD8+ T cells, αCD3/αCD28) was “remained unaltered”, the “naïve CD44loCD62Lhi T cells” value ([2]; CD8+ T cells, αCD3/αCD28) was “significant increase” and the “number of CD44-CD62L+Sca1hi TSCM” value ([2]; CD8+ T cells, αCD3/αCD28, up to 72 hours) was “significantly increased”. The “UA-dependent expansion of CD44-CD62L+Sca1Hi TSCM cells in Pgam5−/− T cells” value ([2]; Pgam5−/− CD8+ T cells) was “blocked”, the “TSCM phenotype in Pink1−/− CD8+ T cells” value ([2]; Pink1−/− CD8+ T cells, presence of UA) was “failed to exhibit a TSCM phenotype” and the “UA-induced lysosome formation and decrease in mitochondrial content in Pink1−/− T cells” value ([2]; Pink1−/− T cells) was “prevented”. For the same molecule, the “expression of genes that code for immune checkpoints and effector molecules” value ([2]; RNA sequencing, 48 hours) was “reduced”, the β-catenin phosphorylation ([2]; after 6 hours) was “marked decrease” and the “mitochondrial content in CD8+ T cells” value ([2]; after 24 hours) was “loss of mitochondrial content in a dose-dependent manner”. For the same molecule, the PGC-1α expression ([2]; prolonged UA administration in vitro (48 h, 50 μM)) was “marked upregulation”, the “transcription of Wnt target genes” value ([2]; qPCR, 24 h after stimulation) was “increased transcription” and the Pgam5 localization ([2]; sub-cellular fractionation immunoblot and immunofluorescence, 6 h) was “rapidly released into the cytoplasma”. The “T cell death in vitro” value ([2]; various concentrations of UA) was “dose-dependent T cell death”, the “mitochondrial membrane potential in CD8+ T cells” value ([2]; within six hours after UA administration) was “reduction” and the “TSCM formation in CD4+ cells” value ([2]; αCD3/αCD28) was “did not promote enhanced TSCM formation”. For the same molecule, the “differentiation into effector T cells (Granzyme B, IFNγ)” value ([2]; αCD3/αCD28 beads, 48 h) was “blocked” and the “Atg5, Atg7, p62, Lamp2 and Pink1 gene expression” value ([2]; αCD3/αCD28 stimulated T cells, 24 h, UA 50 μM) was “significant upregulation”.
